Experimental data published in patent US9890117B2, “Benzamide compounds and related methods of use” (Northwestern University, priority 2012, dated 2018).
Counter-ions that a name gives are not always drawn.

Molecular target: T1, SIRT2 (Homo sapiens, UniProt Q8IXJ6)
T1 construct: recombinant active enzymes SIRT1, SIRT2, and the catalytically active fragment of SIRT3
T1 sequence (Q8IXJ6 1-389): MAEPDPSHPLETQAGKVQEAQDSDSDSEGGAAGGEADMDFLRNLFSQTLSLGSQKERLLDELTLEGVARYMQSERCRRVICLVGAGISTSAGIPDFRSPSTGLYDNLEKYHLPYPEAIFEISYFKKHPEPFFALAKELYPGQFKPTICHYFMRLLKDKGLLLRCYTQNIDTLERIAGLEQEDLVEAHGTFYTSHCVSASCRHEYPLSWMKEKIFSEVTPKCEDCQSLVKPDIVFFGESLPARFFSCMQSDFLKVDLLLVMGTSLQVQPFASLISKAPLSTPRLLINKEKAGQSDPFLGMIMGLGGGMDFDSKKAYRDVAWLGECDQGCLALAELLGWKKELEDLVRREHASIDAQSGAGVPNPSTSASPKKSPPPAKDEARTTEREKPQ
Test: Fluor-de-Lys biochemical sirtuin deacetylation assay, SIRT2
Details: 10 μM

| Compound | inhibition at 10 µM [%] |
| --- | --- |
| CC(=O)c1ccc([C@H](C)Oc2cccc(C(=O)Nc3ccc(C#N)cc3)c2)cc1 [Compound 216Al, (S)-3-(1-(4-acetylphenyl)ethoxy)-N-(4-cyanophenyl)benzamide] | 60 |
| CC(O)c1ccc([C@@H](C)Oc2cccc(C(=O)Nc3ccc(C#N)cc3)c2)cc1 (stereo partly drawn) [Compound 216Am, N-(4-cyanophenyl)-3-((1R)-1-(4-(1-hydroxyethyl)phenyl)ethoxy)benzamide] | 21 |
| CC(=O)c1ccc([C@@H](C)Oc2cncc(C(=O)Nc3ccc(C#N)cc3)c2)cc1 [Compound 216An, (R)-5-(1-(4-acetylphenyl)ethoxy)-N-(4-cyanophenyl)nicotinamide] | 95 |
| CCC(CC)Oc1cccc(C(=O)Nc2ccc(C#N)cc2)c1 [Compound 216Ao, N-(4-cyanophenyl)-3-(pentan-3-yloxy)benzamide] | 37 |
| CC(=O)c1ccc(C(Oc2cccc(C(=O)Nc3ccc(C#N)cc3)c2)C(C)C)cc1 (stereo not drawn) [Compound 216Ap, 3-(1-(4-acetylphenyl)-2-methylpropoxy)-N-(4-cyanophenyl)benzamide] | 44 |
| CC(O)c1ccc([C@@H](C)Oc2cncc(C(=O)Nc3ccc(C#N)cc3)c2)cc1 (stereo partly drawn) [Compound 216Aq, N-(4-cyanophenyl)-5-((1R)-1-(4-(1-hydroxyethyl)phenyl)ethoxy)nicotinamide] | 0 |
| CC(=O)c1ccc(COc2cccc(C(=O)Nc3ccc(C#N)cc3)c2)cc1 [Compound 216Ar, 3-((4-acetylbenzyl)oxy)-N-(4-cyanophenyl)benzamide] | 27 |
| CC(=O)c1ccc(NC(=O)c2cccc(O[C@H](C)c3ccc(C(C)=O)cc3)c2)cc1 [Compound 216As, (R)—N-(4-acetylphenyl)-3-(1-(4-acetylphenyl)ethoxy)benzamide] | 97 |
| CC(=O)c1ccc(C(C)(C)Oc2cccc(C(=O)Nc3ccc(Br)cc3)c2)cc1 [Compound 216At, 3-((2-(4-acetylphenyl)propan-2-yl)oxy)-N-(4-bromophenyl)benzamide] | 34 |
| CC(=O)c1ccc(C(C)(C)Oc2cccc(C(=O)Nc3ccc(C(F)(F)F)cc3)c2)cc1 [Compound 216Au, 3-((2-(4-acetylphenyl)propan-2-yl)oxy)-N-(4-(trifluoromethyl)phenyl)benzamide] | 27 |
| CC(=O)c1ccc(C(C)Oc2cccc(C(=O)Nc3ccc(Cl)cc3)c2)cc1 (stereo not drawn) [Compound 216Av, 3-(1-(4-acetylphenyl)ethoxy)-N-(4-chlorophenyl)benzamide] | 89 |
| CC(=O)c1ccc(C(C)Oc2cccc(C(=O)Nc3ccc(F)cc3)c2)cc1 (stereo not drawn) [Compound 216Aw, 3-(1-(4-acetylphenyl)ethoxy)-N-(4-fluorophenyl)benzamide] | 62 |
| COc1ccc(NC(=O)c2cccc(OC(C)c3ccc(C(C)=O)cc3)c2)cc1 (stereo not drawn) [Compound 216Ax, 3-(1-(4-acetylphenyl)ethoxy)-N-(4-methoxyphenyl)benzamide] | 56 |
| CC(=O)c1ccc(NC(=O)c2cccc(OC(C)c3ccc(C(C)=O)cc3)c2)cc1 (stereo not drawn) [Compound 216Ay, N-(4-acetylphenyl)-3-(1-(4-acetylphenyl)ethoxy)benzamide] | 94 |
| CC(=O)c1ccc(C(C)Oc2cccc(C(=O)Nc3ccc(CC#N)cc3)c2)cc1 (stereo not drawn) [Compound 216Az, 3-(1-(4-acetylphenyl)ethoxy)-N-(4-(cyanomethyl)phenyl)benzamide] | 58 |
| CC(=O)c1ccc(C(C)Oc2cccc(C(=O)Nc3ccc(Br)cc3)c2)cc1 (stereo not drawn) [Compound 216Ba, 3-(1-(4-acetylphenyl)ethoxy)-N-(4-bromophenyl)benzamide] | 85 |
| CC(=O)c1ccc(C(C)Oc2cccc(C(=O)Nc3ccc(S(C)(=O)=O)cc3)c2)cc1 (stereo not drawn) [Compound 216Bb, 3-(1-(4-acetylphenyl)ethoxy)-N-(4-(methylsulfonyl)phenyl)benzamide] | 70 |
| CC(=O)c1ccc(C(C)Oc2cccc(C(=O)Nc3ccc(C(F)(F)F)cc3)c2)cc1 (stereo not drawn) [Compound 216Bc, 3-(1-(4-acetylphenyl)ethoxy)-N-(4-(trifluoromethyl)phenyl)benzamide] | 77 |
| C[C@@H](Oc1cccc(C(=O)Nc2ccc(C#N)cc2)c1)c1ccc(F)cc1 [Compound 216l, (R)—N-(4-cyanophenyl)-3-(1-(4-fluorophenyl)ethoxy)benzamide] | 88 |
| C[C@H](Oc1cccc(C(=O)Nc2ccc(C#N)cc2)c1)c1ccc(F)cc1 [Compound 216o, (S)—N-(4-cyanophenyl)-3-(1-(4-fluorophenyl)ethoxy)benzamide] | 54 |
| CC(C)(Oc1cccc(C(=O)Nc2ccc(C#N)cc2)c1)c1ccc(F)cc1 [Compound 216p, N-(4-cyanophenyl)-3-((2-(4-fluorophenyl)propan-2-yl)oxy)benzamide] | 55 |
| C=CCOc1cc(OCc2ccc(C#N)cc2)cc(C(=O)Nc2ccc(C#N)cc2)c1 [Compound 216v, 3-(allyloxy)-5-((4-cyanobenzyl)oxy)-N-(4-cyanophenyl)benzamide] | 11 |
| N#Cc1ccc(COc2cc(OC[C@@H](O)CO)cc(C(=O)Nc3ccc(C#N)cc3)c2)cc1 [Compound 216x, (S)-3-((4-cyanobenzyl)oxy)-N-(4-cyanophenyl)-5-(2,3-dihydroxypropoxy)benzamide] | 25 |
| CCN(CC)CCOc1cc(OCc2ccc(C#N)cc2)cc(C(=O)Nc2ccc(C#N)cc2)c1 [Compound 216y, 3-((4-cyanobenzyl)oxy)-N-(4-cyanophenyl)-5-(2-(diethylamino)ethoxy)benzamide] | 19 |
| N#Cc1ccc(NC(=O)c2cccc(NCc3ccc(F)cc3)c2)nc1 [Compound 221b, N-(5-cyanopyridin-2-yl)-3-((4-fluorobenzyl)amino)benzamide] | 28 |
| N#Cc1ccc(NC(=O)c2cccc3c2CCN(Cc2ccc(F)c(F)c2)C3)cc1 [Compound 225m, N-(4-cyanophenyl)-2-(3,4-difluorobenzyl)-1,2,3,4-tetrahydroisoquinoline-5-carboxamide hydrochloride] | 65 |
| N#Cc1ccc(NC(=O)c2cccc(CN3CCc4cc(Br)ccc4C3)c2)cc1 [Compound 225q, 3-((6-bromo-3,4-dihydroisoquinolin-2(1H)-yl)methyl)-N-(4-cyanophenyl)benzamide hydrochloride] | 80 |

Further lines, results first:

| inhibition at 10 µM [%] | Compound |
| --- | --- |
| 63 | CN(Cc1ccc(C#N)cc1)Cc1cccc(C(=O)Nc2ccc(C#N)cc2)c1 [Compound 225a, 3-(((4-cyanobenzyl)(methyl)amino)methyl)-N-(4-cyanophenyl)benzamide] |
| 55 | N#Cc1ccc(NC(=O)c2cccc(CN(Cc3ccc(F)c(F)c3)C3CC3)c2)cc1 [Compound 225d, N-(4-cyanophenyl)-3-((cyclopropyl(3,4-difluorobenzyl)amino)methyl)benzamide hydrochloride] |
| 49 | N#Cc1ccc(NC(=O)c2cccc(CN(Cc3ccc(C(F)(F)F)cc3)C3CC3)c2)cc1 [Compound 225e, N-(4-cyanophenyl)-3-((cyclopropyl(4-(trifluoromethyl)benzyl)amino)methyl)-benzamide hydrochloride] |
| 64 | N#Cc1ccc(NC(=O)c2cccc(CN(Cc3cc(F)cc(F)c3)C3CC3)c2)cc1 [Compound 225f, N-(4-cyanophenyl)-3-((cyclopropyl(3,5-difluorobenzyl)amino)methyl)benzamide hydrochloride] |
| 44 | N#Cc1ccc(NC(=O)c2cccc(CN(Cc3ccc(C#N)nc3)C3CC3)c2)cc1 [Compound 225g, N-(4-cyanophenyl)-3-((((6-cyanopyridin-3-yl)methyl)(cyclopropyl)amino)-methyl)benzamide hydrochloride] |
| 28 | CC(C)(C)N(Cc1ccc(C#N)cc1)Cc1cccc(C(=O)Nc2ccc(C#N)cc2)c1 [Compound 225h, 3-((tert-butyl(4-cyanobenzyl)amino)methyl)-N-(4-cyanophenyl)benzamide hydrochloride] |
| 37 | N#Cc1ccc(NC(=O)c2cccc(CN(Cc3ccc(Br)cc3)C3CC3)c2)cc1 [Compound 225l, 3-(((4-bromobenzyl)(cyclopropyl)amino)methyl)-N-(4-cyanophenyl)benzamide hydrochloride] |
| 0 | CN(C(=O)c1cncc(CN(Cc2ccc(F)c(F)c2)C2CC2)c1)c1ccc(C#N)cc1 [Compound 225n, N-(4-cyanophenyl)-5-((cyclopropyl(3,4-difluorobenzyl)amino)methyl)-N-methylnicotinamide hydrochloride] |
| 8 | N#Cc1ccc(CN(Cc2cncc(C(=O)Nc3ccc(Cl)cc3)c2)C2CC2)cc1 [Compound 225o, N-(4-chlorophenyl)-5-(((4-cyanobenzyl)(cyclopropyl)amino)methyl)nicotinamide hydrochloride] |
| 0 | CN(C(=O)c1cncc(CN(Cc2ccc(C#N)cc2)C2CC2)c1)c1ccc(Cl)cc1 [Compound 225p, N-(4-chlorophenyl)-5-(((4-cyanobenzyl)(cyclopropyl)amino)methyl)-N-methylnicotinamide hydrochloride] |
| 10 | CC(=O)c1ccc(CN(Cc2cncc(C(=O)Nc3ccc(C#N)cc3)c2)C2CC2)cc1 [Compound 225r, 5-(((4-acetylbenzyl)(cyclopropyl)amino)methyl)-N-(4-cyanophenyl)nicotinamide hydrochloride] |
| 3 | CC(=O)c1ccc(CN(Cc2cncc(C(=O)N(C)c3ccc(C#N)cc3)c2)C2CC2)cc1 [Compound 225s, 5-(((4-acetylbenzyl)(cyclopropyl)amino)methyl)-N-(4-cyanophenyl)-N-methylnicotinamide hydrochloride] |
